One test has as its target Cbl-b (Homo sapiens (Human), UniProt Q13191). Nature of the test: Cbl-b LCK Ub TR-FRET assay (Cbl-b Lck HTRF). It is filed as biochemical. Conditions: for IC50: Cbl-b LCK Ub TR-FRET; for fold-selectivity (Cbl-b over C-cbl): ratio C-cbl Lck HTRF IC50 / Cbl-b Lck HTRF IC50. The method in brief:
(§1)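 Signal is read once the detection mix has stood 20 min at ambient temperature. Curves are anchored by DMSO as maximum and by omission of LCK as minimum.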

The next test has as its target c-Cbl (Homo sapiens (Human), UniProt P22681). Nature of the test: C-Cbl LCK Ub TR-FRET assay (C-cbl Lck HTRF). Type of test: biochemical. Summed up:
as §1

Sequence of c-Cbl (P22681 47-435): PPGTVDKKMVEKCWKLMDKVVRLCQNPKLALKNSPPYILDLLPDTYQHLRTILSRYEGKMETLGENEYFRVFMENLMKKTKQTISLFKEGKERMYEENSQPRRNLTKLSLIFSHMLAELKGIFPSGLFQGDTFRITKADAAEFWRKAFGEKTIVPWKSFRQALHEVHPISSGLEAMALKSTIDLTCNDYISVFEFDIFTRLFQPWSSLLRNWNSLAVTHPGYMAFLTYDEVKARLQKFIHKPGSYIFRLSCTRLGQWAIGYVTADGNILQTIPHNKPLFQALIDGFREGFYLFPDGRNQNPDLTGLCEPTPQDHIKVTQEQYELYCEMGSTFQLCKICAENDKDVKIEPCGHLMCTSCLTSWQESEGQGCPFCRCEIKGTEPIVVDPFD
Sequence of Cbl-b (Q13191 40-426): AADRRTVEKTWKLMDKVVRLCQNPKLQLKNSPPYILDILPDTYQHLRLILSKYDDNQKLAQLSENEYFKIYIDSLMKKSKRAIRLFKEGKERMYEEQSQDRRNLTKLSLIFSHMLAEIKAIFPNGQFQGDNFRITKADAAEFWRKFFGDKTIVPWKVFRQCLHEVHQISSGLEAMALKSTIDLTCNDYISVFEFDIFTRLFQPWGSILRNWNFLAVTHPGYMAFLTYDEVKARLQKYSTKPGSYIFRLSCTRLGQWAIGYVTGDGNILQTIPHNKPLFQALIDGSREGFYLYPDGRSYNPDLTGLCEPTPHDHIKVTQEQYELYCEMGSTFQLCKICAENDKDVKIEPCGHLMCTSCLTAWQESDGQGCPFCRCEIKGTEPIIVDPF

As for `Cn1cnnc1[C@]1(c2cccc(N3Cc4c(cc(CNC5(C)CCC5)cc4C(F)(F)F)C3=O)c2)C[C@](F)(CF)C1` [Compound 105, 2-(3-((1r,3r)-3-fluoro-3-(fluoromethyl)-1-(4-methyl-4H-1,2,4-triazol-3-yl)cyclobutyl)phenyl)-6-(((1-methylcyclobutyl)amino)methyl)-4-(trifluoromethyl)isoindolin-1-one], at Cbl-b, the 50% inhibitory concentration (IC50) was 15 nM and the “fold-selectivity (Cbl-b over C-cbl)” value is reported as 3.7x. This compound gave an IC50 against c-Cbl of 54 nM.

For `Cn1cnnc1[C@H](c1cccc(N2Cc3c(cc(CNC4(C)CCC4)cc3C(F)(F)F)C2=O)c1)C1CC2(COC2)C1` [Compound 121, (S)-2-(3-((4-methyl-4H-1,2,4-triazol-3-yl)(2-oxaspiro[3.3]heptan-6-yl)methyl)phenyl)-6-(((1-methylcyclobutyl)amino)methyl)-4-(trifluoromethyl)isoindolin-1-one], on Cbl-b, the midpoint of inhibition, the IC50, lay at 11000 nM and the “fold-selectivity (Cbl-b over C-cbl)” value was determined as 1.7x. Besides, on c-Cbl, the IC50 was determined as 20000 nM.

As for `Cn1cnnc1[C@@H](c1cccc(N2Cc3c(cc(CNC4(C)CCC4)cc3C(F)(F)F)C2=O)c1)C1CC2(COC2)C1` [Compound 122, (R)-2-(3-((4-methyl-4H-1,2,4-triazol-3-yl)(2-oxaspiro[3.3]heptan-6-yl)methyl)phenyl)-6-(((1-methylcyclobutyl)amino)methyl)-4-(trifluoromethyl)isoindolin-1-one], at Cbl-b, the 50% inhibitory concentration (IC50) amounted to 1400 nM and the “fold-selectivity (Cbl-b over C-cbl)” value was 1.6x. At c-Cbl, this compound came in with an IC50 of 2100 nM.

In the case of `Cn1cnnc1[C@@H](c1cccc(N2Cc3c(cc(CNC4(C)CCC4)cc3C(F)(F)F)C2=O)c1)[C@@H]1CCOC1` [Compound 168, 2-(3-((R)-(4-methyl-4H-1,2,4-triazol-3-yl)((S)-tetrahydrofuran-3-yl)methyl)phenyl)-6-(((1-methylcyclobutyl)amino)methyl)-4-(trifluoromethyl)isoindolin-1-one], on Cbl-b, inhibition was half-maximal at 23 nM (IC50) and the “fold-selectivity (Cbl-b over C-cbl)” value stood at 1.5x. Besides, the IC50 at c-Cbl came out at 34 nM.

As for `Cn1cnnc1C1(c2cccc(N3Cc4c(cccc4C(F)(F)F)C3=O)c2)CC2(COC2)C1` [Compound 191, 2-(3-(6-(4-methyl-4H-1,2,4-triazol-3-yl)-2-oxaspiro[3.3]heptan-6-yl)phenyl)-4-(trifluoromethyl)isoindolin-1-one], at Cbl-b, half-maximal inhibition (IC50) required 5700 nM and the “fold-selectivity (Cbl-b over C-cbl)” value was 1.7x. This compound also gave an IC50 against c-Cbl of 9700 nM.

Take `Cn1cnnc1C1(c2cccc(N3Cc4c(cc(CNC5(C)CCC5)cc4C(F)(F)F)C3=O)c2)CC2(CN(C3COC3)C2)C1` [Compound 199, 2-(3-(6-(4-methyl-4H-1,2,4-triazol-3-yl)-2-(oxetan-3-yl)-2-azaspiro[3.3]heptan-6-yl)phenyl)-6-(((1-methylcyclobutyl)amino)methyl)-4-(trifluoromethyl)isoindolin-1-one]: on Cbl-b, the IC50 is 15000 nM and the “fold-selectivity (Cbl-b over C-cbl)” value is given as 1.4x. This compound registered an IC50 against c-Cbl of 20000 nM.

As to `CO[C@H]1C[C@@](c2cc(C)cc(N3Cc4c(cc(CNC5(C)CCC5)cc4C(F)(F)F)C3=O)c2)(c2nncn2C)C1` [Compound 237, 2-(3-((1s,3s)-3-methoxy-1-(4-methyl-4H-1,2,4-triazol-3-yl)cyclobutyl)-5-methylphenyl)-6-(((1-methylcyclobutyl)amino)methyl)-4-(trifluoromethyl)isoindolin-1-one], at Cbl-b, 340 nM corresponded to half-maximal inhibition (IC50) and the “fold-selectivity (Cbl-b over C-cbl)” value is listed as 1.2x. Also, the IC50 against c-Cbl came out at 390 nM.

In the case of `Cn1cnnc1[C@@H](CC1COC1)c1cccc(N2Cc3c(cc(CNC4(C)CCC4)cc3C(F)(F)F)C2=O)c1` [Compound 244, (S)-2-(3-(1-(4-methyl-4H-1,2,4-triazol-3-yl)-2-(oxetan-3-yl)ethyl)phenyl)-6-(((1-methylcyclobutyl)amino)methyl)-4-(trifluoromethyl)isoindolin-1-one], on Cbl-b, the IC50 was 3100 nM and the “fold-selectivity (Cbl-b over C-cbl)” value amounted to 1.2x. This compound also had a half-inhibitory concentration (IC50) against c-Cbl of 3600 nM.

For the compound `Cn1cnnc1[C@H](CC1COC1)c1cccc(N2Cc3c(cc(CNC4(C)CCC4)cc3C(F)(F)F)C2=O)c1` [Compound 245, (R)-2-(3-(1-(4-methyl-4H-1,2,4-triazol-3-yl)-2-(oxetan-3-yl)ethyl)phenyl)-6-(((1-methylcyclobutyl)amino)methyl)-4-(trifluoromethyl)isoindolin-1-one], at Cbl-b, the IC50 was found to be 49 nM and the “fold-selectivity (Cbl-b over C-cbl)” value was determined as 2.2x. This compound had a half-inhibitory concentration (IC50) against c-Cbl of 110 nM.

For `Cn1cnnc1[C@@H](CC1CCCC1)c1cccc(N2Cc3c(cc(CNC4(C)CCC4)cc3C(F)(F)F)C2=O)c1` [Compound 248, (S)-2-(3-(2-cyclopentyl-1-(4-methyl-4H-1,2,4-triazol-3-yl)ethyl)phenyl)-6-(((1-methylcyclobutyl)amino)methyl)-4-(trifluoromethyl)isoindolin-1-one], at Cbl-b, the IC50 came to 1400 nM and the “fold-selectivity (Cbl-b over C-cbl)” value came to 1.6x. Further, at c-Cbl, the 50% inhibitory concentration (IC50) was 2100 nM.

Regarding `Cn1cnnc1[C@@H](c1cccc(N2Cc3c(cc(CNC4(C)CCC4)cc3C(F)(F)F)C2=O)c1)C1CCCCC1` [Compound 250, (R)-2-(3-(cyclohexyl(4-methyl-4H-1,2,4-triazol-3-yl)methyl)phenyl)-6-(((1-methylcyclobutyl)amino)methyl)-4-(trifluoromethyl)isoindolin-1-one], the IC50 at Cbl-b turned out to be 3100 nM; against c-Cbl it was 3600 nM. Also, the “fold-selectivity (Cbl-b over C-cbl)” value on Cbl-b is on record as 1.2x.

On to `Cn1cnnc1[C@@H](CC1CCOCC1)c1cccc(N2Cc3c(cc(CNC4(C)CCC4)cc3C(F)(F)F)C2=O)c1` [Compound 253, (S)-2-(3-(1-(4-methyl-4H-1,2,4-triazol-3-yl)-2-(tetrahydro-2H-pyran-4-yl)ethyl)phenyl)-6-(((1-methylcyclobutyl)amino)methyl)-4-(trifluoromethyl)isoindolin-1-one], for which, on Cbl-b, the midpoint of inhibition, the IC50, lay at 120 nM and the “fold-selectivity (Cbl-b over C-cbl)” value was determined as 1.1x. In addition, the IC50 at c-Cbl came out at 140 nM.

As to `Cn1cnnc1[C@H](CC1(C)COC1)c1cccc(N2Cc3c(cc(CNC4(C)CCC4)cc3C(F)(F)F)C2=O)c1` [Compound 254, (R)-2-(3-(1-(4-methyl-4H-1,2,4-triazol-3-yl)-2-(3-methyloxetan-3-yl)ethyl)phenyl)-6-(((1-methylcyclobutyl)amino)methyl)-4-(trifluoromethyl)isoindolin-1-one], the IC50 at Cbl-b was no less than 20000 nM; against c-Cbl, 20000 nM. In addition, the “fold-selectivity (Cbl-b over C-cbl)” value at Cbl-b is 1.0x.

In the case of `Cn1cnnc1[C@@H](CC1(C)COC1)c1cccc(N2Cc3c(cc(CNC4(C)CCC4)cc3C(F)(F)F)C2=O)c1` [Compound 255, (S)-2-(3-(1-(4-methyl-4H-1,2,4-triazol-3-yl)-2-(3-methyloxetan-3-yl)ethyl)phenyl)-6-(((1-methylcyclobutyl)amino)methyl)-4-(trifluoromethyl)isoindolin-1-one], at Cbl-b, the IC50 was determined as 760 nM and the “fold-selectivity (Cbl-b over C-cbl)” value was 1.3x. This compound gave a 50% inhibitory concentration (IC50) against c-Cbl of 990 nM.

In the case of `Cn1cnnc1[C@H](CC1CCC1)c1cccc(N2Cc3c(cc(CNC4(C)CCC4)cc3C(F)(F)F)C2=O)c1` [Compound 268, (R)-2-(3-(2-cyclobutyl-1-(4-methyl-4H-1,2,4-triazol-3-yl)ethyl)phenyl)-6-(((1-methylcyclobutyl)amino)methyl)-4-(trifluoromethyl)isoindolin-1-one], on Cbl-b, the half-maximal inhibitory concentration (IC50) amounted to 1700 nM and the “fold-selectivity (Cbl-b over C-cbl)” value turned out to be 1.6x. In addition, the half-inhibitory concentration (IC50) against c-Cbl is 2700 nM.

The values are drawn from patent publication US12187709B2 (Genentech, Inc., priority 2021, dated 2025).
